Values belong to the compound of their own block, whether it stands above or below them. Calls of active or inactive are those of the source. The rule behind the calls is not given here.
Legend:
[1] = Dose normalized AUC in rat at 5 mg/kg, po measured upto 24 hrs by LC-MS/MS analysis; type: ADME, organism-based; conditions: in vivo
[2] = Cmax in mouse at 5 mg/kg, po measured upto 24 hrs by LC-MS/MS analysis; type: ADME, organism-based; conditions: in vivo
[3] = AUC(0 to 24 hrs) in rat at 5 mg/kg, po measured upto 24 hrs by LC-MS/MS analysis; type: ADME, organism-based; conditions: in vivo
[4] = Selectivity ratio of IC50 for CDK2/CyclinA2 (unknown origin) to IC50 for CDK8/Cyclin C (unknown origin)
[5] = AUC(0 to 24 hrs) in mouse at 5 mg/kg, po measured upto 24 hrs by LC-MS/MS analysis; type: ADME, organism-based; conditions: in vivo
[6] = Tmax in dog at 3 mg/kg, po measured upto 24 hrs by LC-MS/MS analysis; type: ADME, organism-based, Canis lupus familiaris; conditions: in vivo
[7] = Oral bioavailability in mouse at 5 mg/kg measured upto 24 hrs by LC-MS/MS analysis; type: ADME, organism-based; conditions: in vivo
[8] = Selectivity ratio of IC50 for CDK5/p25NCK (unknown origin) to IC50 for CDK8/Cyclin C (unknown origin)
[9] = Cmax in rat at 5 mg/kg, po measured upto 24 hrs by LC-MS/MS analysis; type: ADME, organism-based; conditions: in vivo
[10] = AUC(0 to 24 hrs) in dog at 3 mg/kg, po measured upto 24 hrs by LC-MS/MS analysis; type: ADME, organism-based, Canis lupus familiaris; conditions: in vivo
[11] = Selectivity ratio of IC50 for CDK5/p35NCK (unknown origin) to IC50 for CDK8/Cyclin C (unknown origin)
[12] = Oral bioavailability in rat at 5 mg/kg measured upto 24 hrs by LC-MS/MS analysis; type: ADME, organism-based; conditions: in vivo
Mus musculus [13] = assay: In vivo inhibition of STAT3 phosphorylation in BALB/c nude mouse tumor xenografted with human MV4-11 cells at 60 mg/kg, po qd for 3 weeks and measured 8 to 24 hrs post last dose; type: functional, organism-based; conditions: time 22.0 day
[14] = Dose normalized AUC in dog at 3 mg/kg, po measured upto 24 hrs by LC-MS/MS analysis; type: ADME, organism-based, Canis lupus familiaris; conditions: in vivo
[15] = biological target: CDK9/cyclin T1 (Homo sapiens) (UniProt O60563+P50750); assay: Inhibition of CDK9/cyclinT1 (unknown origin) at 1 uM by luminescence based assay relative to control; type: protein-complex assay
[16] = Toxicity in BALB/c nude mouse xenografted with human MV4-11 cells assessed as change in body weight at 3 mg/kg, ip qd and measured twice a week for 3 weeks in presence of carboplatin; type: organism-based; conditions: in vivo, 504 h
[17] = AUC(0 to 24 hrs) in dog at 5 mg/kg, po measured upto 24 hrs by LC-MS/MS analysis; type: ADME, organism-based, Canis lupus familiaris; conditions: in vivo
[18] = Volume of distribution at steady state in monkey at 1 mg/kg, iv measured upto 24 hrs by LC-MS/MS anlaysis; type: ADME, organism-based, Macaca mulatta; conditions: rhesus monkey, in vivo, read-out: Vdss
[19] = biological target: CDK1/Cyclin E (Homo sapiens) (UniProt P06493+P24864); assay: Inhibition of CDK1/cyclinE1 (unknown origin) at 1 uM by luminescence based assay relative to control; type: protein-complex assay
Chain of CDK1/Cyclin E (Homo sapiens) (P06493 whole entry, looked up): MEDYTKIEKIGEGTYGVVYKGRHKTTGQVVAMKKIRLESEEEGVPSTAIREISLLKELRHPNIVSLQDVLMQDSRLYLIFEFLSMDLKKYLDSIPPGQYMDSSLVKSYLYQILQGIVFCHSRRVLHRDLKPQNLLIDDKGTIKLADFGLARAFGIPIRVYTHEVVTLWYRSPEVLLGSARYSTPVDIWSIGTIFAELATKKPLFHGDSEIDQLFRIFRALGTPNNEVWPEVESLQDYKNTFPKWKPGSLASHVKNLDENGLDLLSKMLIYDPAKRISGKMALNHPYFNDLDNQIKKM
Chain of CDK1/Cyclin E (Homo sapiens) (P24864 whole entry, looked up): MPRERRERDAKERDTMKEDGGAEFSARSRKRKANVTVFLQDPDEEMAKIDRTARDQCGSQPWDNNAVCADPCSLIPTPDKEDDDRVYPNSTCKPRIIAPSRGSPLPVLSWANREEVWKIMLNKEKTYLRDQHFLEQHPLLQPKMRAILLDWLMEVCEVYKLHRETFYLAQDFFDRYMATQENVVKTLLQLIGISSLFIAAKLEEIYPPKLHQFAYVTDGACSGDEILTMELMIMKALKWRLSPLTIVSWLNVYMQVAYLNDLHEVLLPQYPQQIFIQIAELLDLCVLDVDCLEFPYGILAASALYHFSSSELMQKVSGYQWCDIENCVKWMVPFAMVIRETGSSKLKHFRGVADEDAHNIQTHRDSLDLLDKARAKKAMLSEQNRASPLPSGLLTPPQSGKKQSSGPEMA

[20] = AUC(0 to 24 hrs) in mouse at 30 mg/kg, po measured upto 24 hrs by LC-MS/MS analysis; type: ADME, organism-based; conditions: in vivo
[21] = Dose normalized AUC in rat at 10 mg/kg, po measured upto 24 hrs by LC-MS/MS analysis; type: ADME, organism-based; conditions: in vivo
MDA-MB-468 [22] = assay: Antitumor activity against human MDA-MB-468 cells xenografted in BALB/c nude mouse assessed as tumor growth inhibition at 3 mg/kg, po qd and measured twice a week for 3 weeks; type: functional, organism-based
[23] = Tmax in mouse at 30 mg/kg, po measured upto 24 hrs by LC-MS/MS analysis; type: ADME, organism-based; conditions: in vivo
[24] = Dose normalized AUC in dog at 5 mg/kg, po measured upto 24 hrs by LC-MS/MS analysis; type: ADME, organism-based, Canis lupus familiaris; conditions: in vivo
[25] = biological target: CDK3/Cyclin E (Homo sapiens) (UniProt P24864+Q00526); assay: Inhibition of CDK3/cyclinE1 (unknown origin) at 1 uM by luminescence based assay relative to control; type: protein-complex assay
Chain of CDK3/Cyclin E (Homo sapiens) (P24864 whole entry, looked up): as above
Chain of CDK3/Cyclin E (Homo sapiens) (Q00526 whole entry, looked up): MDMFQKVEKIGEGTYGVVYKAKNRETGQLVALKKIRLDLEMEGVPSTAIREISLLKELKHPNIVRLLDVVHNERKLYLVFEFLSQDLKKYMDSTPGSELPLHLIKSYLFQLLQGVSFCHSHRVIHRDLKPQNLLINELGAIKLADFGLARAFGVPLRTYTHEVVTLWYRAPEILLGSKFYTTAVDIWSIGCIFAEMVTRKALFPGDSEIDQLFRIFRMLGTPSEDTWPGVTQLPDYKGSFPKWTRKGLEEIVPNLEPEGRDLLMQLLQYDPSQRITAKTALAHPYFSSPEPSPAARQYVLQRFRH

[26] = Dose normalized AUC in monkey at 5 mg/kg, po measured upto 24 hrs by LC-MS/MS analysis; type: ADME, organism-based, Macaca mulatta; conditions: rhesus monkey, in vivo
[27] = biological target: Cyclin-dependent kinase 13/Cyclin-K (Homo sapiens) (UniProt Q14004+O75909); assay: Inhibition of CDK13/cyclinK (unknown origin) at 1 uM by luminescence based assay relative to control; type: protein-complex assay
Chain of Cyclin-dependent kinase 13/Cyclin-K (Homo sapiens) (O75909 whole entry, looked up): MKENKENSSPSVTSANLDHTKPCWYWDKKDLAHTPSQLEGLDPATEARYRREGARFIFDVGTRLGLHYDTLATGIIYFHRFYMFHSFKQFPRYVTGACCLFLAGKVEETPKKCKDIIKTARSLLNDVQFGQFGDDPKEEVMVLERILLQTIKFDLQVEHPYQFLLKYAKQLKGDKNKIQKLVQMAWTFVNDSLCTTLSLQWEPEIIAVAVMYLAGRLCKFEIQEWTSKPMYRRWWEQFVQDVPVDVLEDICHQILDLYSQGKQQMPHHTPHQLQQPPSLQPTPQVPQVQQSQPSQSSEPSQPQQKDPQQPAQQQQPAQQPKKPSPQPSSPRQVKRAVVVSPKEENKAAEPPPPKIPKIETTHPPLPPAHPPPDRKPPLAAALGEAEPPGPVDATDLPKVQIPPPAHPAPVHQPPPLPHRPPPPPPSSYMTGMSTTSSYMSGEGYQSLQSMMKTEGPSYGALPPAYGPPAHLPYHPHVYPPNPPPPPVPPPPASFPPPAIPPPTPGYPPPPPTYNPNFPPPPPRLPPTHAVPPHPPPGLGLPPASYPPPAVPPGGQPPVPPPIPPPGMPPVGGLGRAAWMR
Chain of Cyclin-dependent kinase 13/Cyclin-K (Homo sapiens) (Q14004 whole entry, looked up): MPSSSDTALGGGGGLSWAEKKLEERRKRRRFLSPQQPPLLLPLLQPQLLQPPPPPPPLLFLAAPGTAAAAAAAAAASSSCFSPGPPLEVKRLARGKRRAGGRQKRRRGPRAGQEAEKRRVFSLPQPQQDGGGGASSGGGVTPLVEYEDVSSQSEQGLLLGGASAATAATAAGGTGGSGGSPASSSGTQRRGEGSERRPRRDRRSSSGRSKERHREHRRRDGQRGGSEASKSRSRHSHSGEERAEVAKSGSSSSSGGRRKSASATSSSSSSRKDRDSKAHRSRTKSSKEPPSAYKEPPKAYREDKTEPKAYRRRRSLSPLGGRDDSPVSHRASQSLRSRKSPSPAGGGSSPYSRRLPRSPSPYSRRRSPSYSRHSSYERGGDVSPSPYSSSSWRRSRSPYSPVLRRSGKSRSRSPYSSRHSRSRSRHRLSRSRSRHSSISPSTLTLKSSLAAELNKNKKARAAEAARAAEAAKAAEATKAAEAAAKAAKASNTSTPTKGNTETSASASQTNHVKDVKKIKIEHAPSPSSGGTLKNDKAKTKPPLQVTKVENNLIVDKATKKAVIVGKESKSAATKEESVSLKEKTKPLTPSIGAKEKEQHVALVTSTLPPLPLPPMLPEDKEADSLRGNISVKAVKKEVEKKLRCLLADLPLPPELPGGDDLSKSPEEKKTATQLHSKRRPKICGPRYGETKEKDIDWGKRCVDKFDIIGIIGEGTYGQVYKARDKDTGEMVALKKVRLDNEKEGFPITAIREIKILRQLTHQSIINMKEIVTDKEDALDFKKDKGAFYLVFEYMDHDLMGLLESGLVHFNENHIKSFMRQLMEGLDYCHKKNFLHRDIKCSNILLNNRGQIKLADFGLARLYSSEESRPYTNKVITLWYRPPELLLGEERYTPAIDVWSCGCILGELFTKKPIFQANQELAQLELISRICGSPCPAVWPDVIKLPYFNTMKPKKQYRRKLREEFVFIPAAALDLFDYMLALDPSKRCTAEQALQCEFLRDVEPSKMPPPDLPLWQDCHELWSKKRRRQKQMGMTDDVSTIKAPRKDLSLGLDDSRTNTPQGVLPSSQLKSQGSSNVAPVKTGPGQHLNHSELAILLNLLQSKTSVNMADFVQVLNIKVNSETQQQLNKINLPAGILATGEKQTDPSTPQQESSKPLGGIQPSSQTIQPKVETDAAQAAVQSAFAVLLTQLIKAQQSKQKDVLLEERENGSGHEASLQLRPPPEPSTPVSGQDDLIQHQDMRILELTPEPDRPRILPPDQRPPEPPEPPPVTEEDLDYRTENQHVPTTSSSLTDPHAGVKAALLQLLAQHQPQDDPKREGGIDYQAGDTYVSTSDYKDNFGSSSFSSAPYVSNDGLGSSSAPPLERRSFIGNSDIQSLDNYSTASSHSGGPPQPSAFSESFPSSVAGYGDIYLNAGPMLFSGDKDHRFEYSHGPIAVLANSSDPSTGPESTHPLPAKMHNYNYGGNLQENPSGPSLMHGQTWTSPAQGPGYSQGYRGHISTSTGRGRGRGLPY

Mus musculus [28] = assay: In vivo inhibition of STAT3 phosphorylation in BALB/c nude mouse tumor xenografted with human MV4-11 cells at 10 mg/kg, po qd for 3 weeks and measured 8 to 24 hrs post last dose; type: functional, organism-based; conditions: time 22.0 day
[29] = biological target: CDK12/Cyclin K (Homo sapiens) (UniProt O75909+Q9NYV4); assay: Inhibition of CDK12/cyclinK (unknown origin) at 1 uM by luminescence based assay relative to control; type: protein-complex assay
[30] = Cmax in monkey at 5 mg/kg, po measured upto 24 hrs by LC-MS/MS analysis; type: ADME, organism-based, Macaca mulatta; conditions: rhesus monkey, in vivo
[31] = Clearance in monkey at 1 mg/kg, iv measured upto 24 hrs by LC-MS/MS anlaysis; type: ADME, organism-based, Macaca mulatta; conditions: rhesus monkey, in vivo
[32] = Oral bioavailability in mouse at 30 mg/kg measured upto 24 hrs by LC-MS/MS analysis; type: ADME, organism-based; conditions: in vivo
[33] = Cmax in mouse at 30 mg/kg, po measured upto 24 hrs by LC-MS/MS analysis; type: ADME, organism-based; conditions: in vivo
[34] = biological target: Cyclin-dependent kinase 5/CDK5 activator 1 (Homo sapiens) (UniProt Q00535+Q15078); assay: Inhibition of CDK5/p35NCK (unknown origin) at 1 uM by luminescence based assay relative to control; type: protein-complex assay
Chain of Cyclin-dependent kinase 5/CDK5 activator 1 (Homo sapiens) (Q00535 whole entry): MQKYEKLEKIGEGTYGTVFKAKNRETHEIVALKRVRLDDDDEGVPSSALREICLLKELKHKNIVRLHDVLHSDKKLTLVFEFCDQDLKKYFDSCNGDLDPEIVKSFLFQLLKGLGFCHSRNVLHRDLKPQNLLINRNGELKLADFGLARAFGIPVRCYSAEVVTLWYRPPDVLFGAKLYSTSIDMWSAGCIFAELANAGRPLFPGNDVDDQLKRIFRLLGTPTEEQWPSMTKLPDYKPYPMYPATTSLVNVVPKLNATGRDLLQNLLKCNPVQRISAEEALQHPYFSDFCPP
Chain of Cyclin-dependent kinase 5/CDK5 activator 1 (Homo sapiens) (Q15078 99-307 partner limits assumed): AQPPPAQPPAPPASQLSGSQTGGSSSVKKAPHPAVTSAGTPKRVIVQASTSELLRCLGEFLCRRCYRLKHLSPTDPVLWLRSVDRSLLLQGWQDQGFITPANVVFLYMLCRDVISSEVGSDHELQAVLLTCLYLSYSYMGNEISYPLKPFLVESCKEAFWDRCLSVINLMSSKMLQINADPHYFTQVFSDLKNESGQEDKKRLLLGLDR

[35] = Toxicity in BALB/c nude mouse assessed as changes in body weight at 3 to 10 mg/kg, po qd measured twice a week for 3 weeks; type: organism-based; conditions: in vivo, 504 h, dose 3-10 mg/kg
MDA-MB-468 [36] = assay: Synergistic antitumor activity against human MDA-MB-468 cells xenografted in BALB/c nude mouse assessed as tumor growth inhibition at 3 mg/kg, ip qd and measured twice a week for 3 weeks in presence of carboplatin; type: functional; conditions: MDA-MB-468, 504 h, read-out: TGI
[37] = biological target: CDK18/Cyclin Y (Homo sapiens) (UniProt Q07002+Q8ND76); assay: Inhibition of CDK18/cyclinY (unknown origin) at 1 uM by luminescence based assay relative to control; type: protein-complex assay
[38] = AUC(0 to 24 hrs) in rat at 10 mg/kg, po measured upto 24 hrs by LC-MS/MS analysis; type: ADME, organism-based; conditions: in vivo
[39] = biological target: Signal transducer and activator of transcription 1-alpha/beta (Homo sapiens) (UniProt P42224); assay: Induction of STAT1 (unknown origin) phosphorylation at Ser727 residues by Western blotting analysis; conditions: filed as activator, dose 0.0032-10 µM
Chain of Signal transducer and activator of transcription 1-alpha/beta (Homo sapiens) (P42224 whole entry): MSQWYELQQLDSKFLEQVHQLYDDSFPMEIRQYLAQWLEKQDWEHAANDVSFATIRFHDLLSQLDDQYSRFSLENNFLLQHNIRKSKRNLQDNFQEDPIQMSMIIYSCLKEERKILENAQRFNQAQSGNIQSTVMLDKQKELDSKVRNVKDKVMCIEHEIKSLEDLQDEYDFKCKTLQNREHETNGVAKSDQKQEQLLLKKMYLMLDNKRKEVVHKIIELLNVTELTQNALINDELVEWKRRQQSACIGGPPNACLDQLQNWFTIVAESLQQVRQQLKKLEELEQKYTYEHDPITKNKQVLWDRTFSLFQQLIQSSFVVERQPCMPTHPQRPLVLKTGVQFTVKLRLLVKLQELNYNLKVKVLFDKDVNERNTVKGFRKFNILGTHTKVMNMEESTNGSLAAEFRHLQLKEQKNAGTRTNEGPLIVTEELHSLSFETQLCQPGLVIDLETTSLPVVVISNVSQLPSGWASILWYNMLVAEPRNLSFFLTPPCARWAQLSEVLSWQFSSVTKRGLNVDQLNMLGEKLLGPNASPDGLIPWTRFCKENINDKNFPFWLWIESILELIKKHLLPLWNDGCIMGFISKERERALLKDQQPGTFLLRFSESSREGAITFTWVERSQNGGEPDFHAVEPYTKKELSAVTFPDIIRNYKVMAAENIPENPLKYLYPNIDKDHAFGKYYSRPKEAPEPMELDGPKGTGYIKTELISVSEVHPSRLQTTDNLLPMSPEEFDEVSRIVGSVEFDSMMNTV

[40] = biological target: Cyclin-dependent kinase 2/cyclin E1 (Homo sapiens) (UniProt P24864+P24941); assay: Inhibition of CDK2/Cyclin E1 (unknown origin) at 1 uM by luminescence based assay relative to control; type: protein-complex assay

AUC/dose [1]: 11.2 ng·h/mL
Cmax [2]: 143 ng/mL
AUC(0-t) at 24 h [3]: 56 ng·h/mL
Ratio IC50 [4]: 0.3
AUC(0-t) at 24 h [5]: 1350 ng·h/mL
Tmax [6]: 4.18 h
F [7]: 155%
Ratio IC50 [8]: 0.1
Cmax [9]: 12 ng/mL
AUC(0-t) at 24 h [10]: 2060 ng·h/mL
Ratio IC50 [11]: 0.1
bioavailability [12]: 20%
AUC/dose [14]: 685 ng·h/mL
SMILES: Cc1c(Br)c(Br)c2c3c1nc(N1CCNCC1)n3CCC2 [SEL-120 FREE BASE]
inhibition (Mus musculus [13]): Active

inhibition [15]: 59.3%
AUC(0-t) at 24 h [17]: 5590 ng·h/mL
Vd [18]: 7.05 L/kg
inhibition [19]: 63.4%
AUC(0-t) at 24 h [20]: 23900 ng·h/mL
AUC/dose [21]: 190 ng·h/mL
Tmax [23]: 1.5 h
AUC/dose [24]: 1117 ng·h/mL
inhibition [25]: 45.4%
AUC/dose [26]: 2503 ng·h/mL
inhibition [27]: 57.4%
inhibition [29]: 69.6%
Cmax [30]: 1100 ng/mL
clearance [31]: 13 mL/min/kg
bioavailability [32]: 67%
Cmax [33]: 2280 ng/mL
inhibition [34]: 75.3%
inhibition [37]: 65%
AUC(0-t) at 24 h [38]: 1900 ng·h/mL
Activity [39]: Dose-Dependent Effect
inhibition [40]: 94.8%
SMILES: FC(F)c1c(Br)c(Br)cc2c1nc(N1CCNCC1)n2C1CCOCC1
Activity [16]: Non-Toxic
Activity (MDA-MB-468 [22]): inactive
inhibition (Mus musculus [28]): Active
Activity [35]: Non-Toxic
inhibition in vivo at 3 mg/kg (MDA-MB-468 [36]): 66%

— ChEMBL document CHEMBL5506027, “Discovery of a Novel and Potent Cyclin-Dependent Kinase 8/19 (CDK8/19) Inhibitor for the Treatment of Cancer” (J Med Chem, 2024)
